“And” between values parts separate entries of the source, which are not always exact repeats. Equal entries are not always repeated.
Columns and labels:
[1] = Growth of rats based on their body weight; conditions: 10 weeks; for Final body weight: in g (unit assumed)
Description: As illustrated in the various embodiments and examples provided herein, the protein pattern was obtained using blood plasma from Wistar rats, bred in three groups of 8 rats, 21 days of age (4 females and 4 males) each. […] The animals had free access to deionized water and received the respective diet ad libitum. […]
The animals were kept in stainless steel cages at a controlled temperature equal to 20° C., using 12 hours day/night cycles. After the experimental period (10 weeks), blood samples were collected from each animal by cardiac punction, using standard protocols in heparin tubes. The tubes were inverted 10 times, and immediately placed in an ice bath. The tubes were centrifuged at 1300 RCF at 4° C. during 10 minutes. The plasma was separated from the solids. The supernatant was transferred to a fresh centrifuge tube and was centrifuged at 2400 RCF at 4° C. for 15 minutes. Finally, plasma samples were stored at −80° C. until they were analysed.
The growth of rats for each group was controlled.

[2] = system: blood plasma proteins of basic isoelectric point (bands R-2 to R-15); experiment: Protein pattern of blood plasma proteins of basic isoelectric point (SDS-PAGE, densitometry) in rats fed supplemented diets; format: in vivo, Wistar rats
Description: The plasma was separated from the solids.
For the preparation of the pattern used, individual plasma samples were analyzed by SDS electrophoresis in polyacrylamide gel according to standard protocols. Prior to electrophoretic analysis, plasma samples were fractioned by “batch” adsorption using an ion exchange resin at pH 7.5. The adsorbed fraction was recovered and analyzed by SDS polyacrylamide gel.
A calibration curve was prepared loading five solutions of different concentrations (0, 0.4, 0.6, 0.8, and 1 mg/ml) [XAOG1]·[A2] of bovine serum albumin (as protein standard) in a polyacrylamide gel, and performing SDS-PAGE analysis under the same conditions and with the same protocol as used to analyse the plasma samples. In each lane a single major band was detected, and between the each lane different band intensity was observed due to the different concentration of the protein loaded (FIGS. 2-5). The optical density of each band was determined, as the protein concentration was known in each solution loaded in the different lanes, a linear equation was drawn which correlates the concentration with the intensity of the bands.
The concentration of protein was quantified in each band via optical densitometry and subsequent interpolation in the calibration curve. The concentration average and standard deviation for each band was calculated, considering the 8 samples of each group (controls and experimental). A comparison was made using the Student statistical t-test with a confidence interval 95% to detect significant differences in each band between the experimental and control groups.
The reference pattern for protein corresponds to the set of plasma proteins of basic isoelectric point obtained and separated by the following methodology.
Stage A: Chromatographic Fractionation of Plasma Proteins Basic Isoelectric Point.
1. Resuspend the cationic exchange resin, carefully turning the package containing the resin. When total homogenization is achieved, a certain volume of suspension is taken, between 50 and 500 μL, preferably between 50 and 200 μL, more preferably 100 μL.
2. Mix in a microcentrifuge tube around 50 to 500 μL, preferably between 50 and 200 μL, more preferably 100 μL of plasma with a 1:9 proportional amount of buffer pH 7.5, until a ionic strength equal to 0.1M, is attained, this is if you take 100 μL of plasma, 900 μL buffer must be added to achieve a 1:10 dilution, and obtain a plasma protein solution with an ionic strength equivalent to 0.09 to 0.1M of NaCl.
3. To prepare the cationic exchange resin, it is necessary to decant the resin from the original suspension volume, discarding the supernatant and washing the resin by adding an amount equivalent to the discarded supernatant buffer pH 7.5 plus 0.1M NaCl, repeating the procedure 3 times.
The protein sample obtained from stage 2 is added and mixed gently homogenizing it for 30 minutes and the resin is separated from the supernatant, the supernatant is discarded and the resin is washed with the same volume of pH 7.5 buffer plus 0.1M NaCl, three times. The adsorbed proteins are eluted by adding a suitable volume, preferably between 40 and 80 μL, more preferably 50 µL of pH 7.5 buffer over 1M NaCl, homogenized, the resin is separated from the supernatant, and finally supernatant is recuperated, which corresponds to the fraction of plasma proteins with a basic isoelectric point.
Stage B: Electrophoretic separation of plasma proteins of a basic isoelectric point.
A 12% polyacrylamide gel is prepared, according to standard protocols. A 20 μl of the sample obtained in item 3 and 5 μL of loading buffer (standard composition for SDS analysis) is subject to denaturation by heat. The denatured mixture is loaded into a lane and the electrophoretic run is performed, for a total of 160 Vh. The electrophoresis system is disassembled and the gel is recovered. […]

[3] = system: blood plasma proteins of basic isoelectric point (bands R-2 to R-15); experiment: Protein pattern of blood plasma of an individual treated with dietary supplement seleno methylselenocysteine (Example 2); format: in vivo
Source text: The samples must pass through the stages A and B as described in the preparation of the pattern.
Step C: Comparing the protein pattern of the reference.
It compares the SDS-PAGE gel of the sample collected and treated with the protein pattern characteristic of a supranutritional intake of a trace element, in this case, the organic form of selenium as provided in seleno-methyl-selenocysteine, and evaluating the presence of the same bands and its relative abundance in each of the bands.
A statistical analysis (t-Student with an interval of 95%) is performed to detect significant differences between the relative abundance of the corresponding protein bands between the sample and pattern.
A sample of plasma from an individual who has undergone treatment with a nutritional dietary supplement seleno methylselenocysteine. This plasma sample was subject to the methodology described above, and the following were the results.
For comparison, Student's t-test with a confidence interval of 95% confidence was used. […] The interpretation of the results, based on the methodology would be as follows.

[4] = cited from earlier work
[5] = Sodium Selenate (1.5 μg) diet, females, average
[6] = Sodium Selenate (1.5 μg) diet, females, individual rats
[7] = Sodium Selenate (1.5 μg) diet, group average
[8] = Sodium Selenate (1.5 μg) diet, males, average
[9] = Sodium Selenate (1.5 μg) diet, males, individual rats
[10] = Sodium Selenate (1.9 μg) diet, females, average
[11] = Sodium Selenate (1.9 μg) diet, females, individual rats
[12] = Sodium Selenate (1.9 μg) diet, group average
[13] = Sodium Selenate (1.9 μg) diet, males, average
[14] = Sodium Selenate (1.9 μg) diet, males, individual rats
[15] = SMSeC (1.9 μg) diet, females, average
[16] = SMSeC (1.9 μg) diet, females, individual rats
[17] = SMSeC (1.9 μg) diet, group average
[18] = SMSeC (1.9 μg) diet, males, average
[19] = SMSeC (1.9 μg) diet, males, individual rats
[20] = rat blood plasma, basic isoelectric point fraction, diet with 1.9 μg SMSeC per gram, 10 weeks, average ± standard deviation, [UA] in Tables 4, 5
[21] = rats fed 1.9 μg seleno-methyl-selenocysteine per g of diet, Student t-test, confidence interval 95%

O=[Se](=O)(O)O [Sodium Selenate, sodium selenate]
Delta body weight [1, 5]: 151.1
Final body weight [1, 5]: 199.5
Delta body weight [1, 6]: 141.6 and 135.5 and 139.3 and 187.8
Final body weight [1, 6]: 189.8 and 184.2 and 188.3 and 235.7
Delta body weight [1, 7]: 207.8
Final body weight [1, 7]: 256.7
Delta body weight [1, 8]: 264.6
Final body weight [1, 8]: 313.8
Delta body weight [1, 9]: 266.6 and 275.8 and 271.2 and 244.9
Final body weight [1, 9]: 316.8 and 326.3 and 318.5 and 293.5
Delta body weight [1, 10]: 161.2
Final body weight [1, 10]: 209.7
Delta body weight [1, 11]: 180.4 and 161.3 and 145.1 and 158.1
Final body weight [1, 11]: 228.6 and 210 and 194.1 and 206
Delta body weight [1, 12]: 218.0
Final body weight [1, 12]: 266.9
Delta body weight [1, 13]: 274.8
Final body weight [1, 13]: 324
Delta body weight [1, 14]: 293.1 and 278.3 and 291.9 and 235.9
Final body weight [1, 14]: 343.3 and 328.8 and 339.2 and 284.5

C[Se]C[C@H](N)C(=O)O [SMSeC, seleno-methyl-selenocysteine]
Delta body weight [1, 15]: 168.3
Final body weight [1, 15]: 216.7
Delta body weight [1, 16]: 161.1 and 160.2 and 172.4 and 179.3
Final body weight [1, 16]: 208.6 and 210.3 and 222.2 and 225.5
Delta body weight [1, 17]: 211.5
Final body weight [1, 17]: 260.4
Delta body weight [1, 18]: 254.7
Final body weight [1, 18]: 304
Delta body weight [1, 19]: 245.1 and 256.8 and 275.8 and 241.0
Final body weight [1, 19]: 296.5 and 308.7 and 322.6 and 287.9
Relative abundance of band R-2 (H inhibitory factor complement) of the pattern [2, 20]: 28498 ± 3911.5 arbitrary units
Relative abundance of band R-3 (H inhibitory factor complement) of the pattern [2, 20]: 20594.0 ± 4569.2 arbitrary units
Relative abundance of band R-4 (CRA f isophorm plasminogen) of the pattern [2, 20]: 21804.3 ± 4211.0 arbitrary units
Relative abundance of band R-5 (LOC366747 Protein) of the pattern [2, 20]: 24582.7 ± 3620.9 arbitrary units
Relative abundance of band R-6 (4a component complement) of the pattern [2, 20]: 29751.3 ± 2974.0 arbitrary units
Relative abundance of band R-7 (Albumina) of the pattern [2, 20]: 37380.8 ± 2955.7 arbitrary units
Relative abundance of band R-8 (Da 1-24) of the pattern [2, 20]: 27224.3 ± 6466.9 arbitrary units
Relative abundance of band R-9 (2C chainCregion Ig Gamma) of the pattern [2, 20]: 40411.3 ± 5952.4 arbitrary units
Relative abundance of band R-10 (Precursor β-2-glicoprotein 1) of the pattern [2, 20]: 14366.6 ± 3087.2 arbitrary units
Relative abundance of band R-11 (2A Region C Ig Gamma chain) of the pattern [2, 20]: 14644.4 ± 1750.0 arbitrary units and 14064.4 ± 1750.0 arbitrary units
Relative abundance of band R-12 (4a component complement) of the pattern [2, 20]: 51973.0 ± 4308.2 arbitrary units
Relative abundance of band R-13 (Heavy chain H4 inter α inhibitor) of the pattern [2, 20]: 13414.1 ± 5568.9 arbitrary units
Relative abundance of band R-14 (Ig Kappa precursor) of the pattern [2, 20]: 40436.1 ± 2906.9 arbitrary units
Relative abundance of band R-15 (H apolipoprotein) of the pattern [2, 20]: 11309.5 ± 6939.5 arbitrary units
Concentration of protein in band R-10 compared with basal diet plus 0.15 μg sodium selenate per gram of diet [2, 21]: significantly higher
Concentration of protein in band R-11 compared with basal diet plus 0.15 μg sodium selenate per gram of diet [2, 21]: significantly higher
Concentration of protein in band R-12 compared with basal diet plus 0.15 μg sodium selenate per gram of diet [2, 21]: significantly higher
Concentration of protein in band R-13 compared with basal diet plus 0.15 μg sodium selenate per gram of diet [2, 21]: significantly higher
Concentration of protein in band R-15 compared with basal diet plus 0.15 μg sodium selenate per gram of diet [2, 21]: significantly higher
Concentration of protein in band R-3 compared with both control groups ([2]; rats fed 1.9 μg seleno-methyl-selenocysteine per gram of diet, Student t-test, confidence interval 95%): significantly higher
Relative abundance [UA] of the individual, band R-2 [3]: 29498.0 ± 3911.5 UA
Relative abundance [UA] of the individual, band R-3 [3]: 22594.0 ± 4569.2 UA
Relative abundance [UA] of the individual, band R-4 [3]: 21994.3 ± 4211.0 UA
Relative abundance [UA] of the individual, band R-5 [3]: 25682.7 ± 3620.9 UA
Relative abundance [UA] of the individual, band R-6 [3]: 30751.3 ± 2974.0 UA
Relative abundance [UA] of the individual, band R-7 [3]: 37560.8 ± 2955.7 UA
Relative abundance [UA] of the individual, band R-8 [3]: 28124.3 ± 6466.9 UA
Relative abundance [UA] of the individual, band R-9 [3]: 41211.3 ± 5952.4 UA
Relative abundance [UA] of the individual, band R-10 [3]: 14666.6 ± 3087.2 UA
Relative abundance [UA] of the individual, band R-11 [3]: 13964.4 ± 1750.0 UA
Relative abundance [UA] of the individual, band R-12 [3]: 52073.0 ± 4308.2 UA
Relative abundance [UA] of the individual, band R-13 [3]: 15414.1 ± 5568.9 UA
Relative abundance [UA] of the individual, band R-14 [3]: 41436.1 ± 2906.9 UA
Relative abundance [UA] of the individual, band R-15 [3]: 12009.5 ± 6939.5 UA

[Se] [selenium]
Maximum Tolerable Intake ([4]; adult women and adult men): 400 µg/day
Selenium content of a food diet that could produce toxic effects ([4]; estimated, per kg of food diet): more than 1 mg per kg

Reference: patent US20140332384A1, “BIOMARKERS RELATED WITH A SUPRA-N[…] STATE OF SELENIUM AND DIAGNOSIS METHOD IN WHICH SAID […] IDENTIFIED” (UNIVERSIDAD DE SANTIAGO DE CHILE, priority 2011, published 2014)
